The values below come from patent publication US8431579B2, “Capped pyrazinoylguanidine sodium channel blockers” (Parion Sciences, Inc., priority 2003, dated 2013).

One series has as its target T1, airway epithelial sodium currents (epithelial Na+ channel, ENaC) (Canis lupus familiaris, UniProt A0A8I3MKE6+A0A8I3Q679+Q95165).
T1 sequence (A0A8I3Q679 1-649): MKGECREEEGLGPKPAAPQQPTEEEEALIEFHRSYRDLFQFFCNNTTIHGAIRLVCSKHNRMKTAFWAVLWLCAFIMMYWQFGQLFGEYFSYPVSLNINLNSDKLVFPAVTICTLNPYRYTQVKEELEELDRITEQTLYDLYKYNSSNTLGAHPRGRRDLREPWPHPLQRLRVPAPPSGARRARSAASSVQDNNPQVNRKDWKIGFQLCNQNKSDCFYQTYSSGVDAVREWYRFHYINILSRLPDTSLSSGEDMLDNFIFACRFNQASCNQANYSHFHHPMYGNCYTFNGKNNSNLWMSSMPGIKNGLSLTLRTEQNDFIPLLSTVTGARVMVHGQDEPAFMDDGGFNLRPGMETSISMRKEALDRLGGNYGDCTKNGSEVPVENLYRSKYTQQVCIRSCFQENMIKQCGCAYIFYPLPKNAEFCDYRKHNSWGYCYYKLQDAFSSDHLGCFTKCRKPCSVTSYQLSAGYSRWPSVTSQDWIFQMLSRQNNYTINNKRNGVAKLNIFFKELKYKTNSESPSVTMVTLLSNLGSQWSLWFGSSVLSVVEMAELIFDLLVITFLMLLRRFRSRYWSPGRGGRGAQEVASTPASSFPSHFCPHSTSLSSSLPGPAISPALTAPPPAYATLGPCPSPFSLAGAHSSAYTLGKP
T1 sequence (Q95165 1-641): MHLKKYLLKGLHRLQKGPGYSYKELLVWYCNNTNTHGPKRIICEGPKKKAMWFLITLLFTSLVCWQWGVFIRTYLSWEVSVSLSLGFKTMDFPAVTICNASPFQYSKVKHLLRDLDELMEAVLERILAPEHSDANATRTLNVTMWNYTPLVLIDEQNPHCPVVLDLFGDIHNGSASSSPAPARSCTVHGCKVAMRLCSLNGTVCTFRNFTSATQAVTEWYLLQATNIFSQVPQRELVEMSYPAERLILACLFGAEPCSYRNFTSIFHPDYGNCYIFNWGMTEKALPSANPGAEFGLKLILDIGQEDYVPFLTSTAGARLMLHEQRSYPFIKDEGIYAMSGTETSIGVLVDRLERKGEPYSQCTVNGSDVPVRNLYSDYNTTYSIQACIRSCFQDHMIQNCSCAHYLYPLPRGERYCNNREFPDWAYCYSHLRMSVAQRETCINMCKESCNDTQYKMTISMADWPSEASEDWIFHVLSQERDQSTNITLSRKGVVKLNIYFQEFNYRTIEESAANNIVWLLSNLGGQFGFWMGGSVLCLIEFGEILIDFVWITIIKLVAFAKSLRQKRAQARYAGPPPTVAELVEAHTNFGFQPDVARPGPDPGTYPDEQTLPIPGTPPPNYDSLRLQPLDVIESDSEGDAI
T1 sequence (A0A8I3MKE6 1-646): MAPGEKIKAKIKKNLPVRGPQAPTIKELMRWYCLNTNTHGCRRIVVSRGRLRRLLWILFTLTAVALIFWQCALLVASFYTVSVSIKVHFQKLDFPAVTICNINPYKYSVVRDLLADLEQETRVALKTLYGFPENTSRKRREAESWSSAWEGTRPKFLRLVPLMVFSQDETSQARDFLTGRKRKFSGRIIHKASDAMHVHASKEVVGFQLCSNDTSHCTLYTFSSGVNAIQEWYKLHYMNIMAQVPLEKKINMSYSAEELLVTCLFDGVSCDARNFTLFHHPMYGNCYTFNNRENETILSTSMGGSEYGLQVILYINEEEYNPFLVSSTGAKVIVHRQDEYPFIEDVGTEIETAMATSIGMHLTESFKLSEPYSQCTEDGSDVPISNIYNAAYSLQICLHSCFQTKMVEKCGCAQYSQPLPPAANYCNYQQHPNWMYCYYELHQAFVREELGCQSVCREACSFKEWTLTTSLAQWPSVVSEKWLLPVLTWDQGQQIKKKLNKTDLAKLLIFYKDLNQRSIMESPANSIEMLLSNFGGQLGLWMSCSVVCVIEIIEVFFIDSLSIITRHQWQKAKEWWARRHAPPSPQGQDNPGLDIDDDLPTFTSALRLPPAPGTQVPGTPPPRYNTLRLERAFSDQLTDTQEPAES
In words: In vitro measure of sodium channel blocking activity (short circuit current, airway epithelial monolayers in Ussing chambers). The series is classed as cell-based, human, dog, sheep or rodent. The settings on record: lumenal drug inhibition of ISC in airway epithelial monolayers, value ± spread, n in same cell. The protocol: In Vitro Measure of Sodium Channel Blocking Activity and Reversibility
One assay used to assess mechanism of action and/or potency of the compounds of the present invention involves the determination of lumenal drug inhibition of airway epithelial sodium currents measured under short circuit current (ISC) using airway epithelial monolayers mounted in Ussing chambers. Cells obtained from freshly excised human, dog, sheep or rodent airways are seeded onto porous 0.4 micron Snapwell™ Inserts (CoStar), cultured at air-liquid interface (ALI) conditions in hormonally defined media, and assayed for sodium transport activity (ISC) while bathed in Krebs Bicarbonate Ringer (KBR) in Using chambers. All test drug additions are to the lumenal bath with half-log dose addition protocols (from 1×10^−11 M to 3×10^−5M), and the cumulative change in ISC (inhibition) recorded. All drugs are prepared in dimethyl sulfoxide as stock solutions at a concentration of 1×10^−2 M and stored at −20° C. Eight preparations are typically run in parallel; two preparations per run incorporate amiloride and/or benzamil as positive controls. After the maximal concentration (5×10^−5 M) is administered, the lumenal bath is exchanged three times with fresh drug-free KBR solution, and the resultant ISC measured after each wash for approximately 5 minutes in duration. Reversibility is defined as the percent return to the baseline value for sodium current after the third wash. All data from the voltage clamps are collected via a computer interface and analyzed off-line.
Dose-effect relationships for all compounds are considered and analyzed by the Prism 3.0 program. IC50 values, maximal effective concentrations, and reversibility are calculated and compared to amiloride and benzamil as positive controls.
One may read the EC50 as the concentration at which the effect is half-maximal. High values mean a need for much substance, low ones an effect from little substance. On to `N#CCOc1ccc(CCCCNC(=N)NC(=O)c2nc(Cl)c(N)nc2N)cc1` [compound 16208], for which the midpoint of the response, the EC50, lay at 11 ± 4 nM.

`N=C(NCCCCc1ccc(OCC(O)COCC(O)CO)cc1)NC(=O)c1nc(Cl)c(N)nc1N` (centres unmarked) [compound 15143]: the EC50 was found to be 7 ± 3 nM.

For `N=C(NCCCCc1ccc(OCC(=O)Nc2ncc[nH]2)cc1)NC(=O)c1nc(Cl)c(N)nc1N` [compound 16437], the EC50 turned out to be 13 ± 7 nM.

For `N=C(NCCCCc1ccc(OCC(=O)Nc2ccccc2)cc1)NC(=O)c1nc(Cl)c(N)nc1N` [compound 17482], the EC50 stood at 16 ± 4 nM.

Molecule `N=C(NCCCCc1ccc(OCCCc2ncc[nH]2)cc1)NC(=O)c1nc(Cl)c(N)nc1N` [compound 23022] gave a half-maximal effective concentration (EC50) of 12 ± 3 nM.

`CN(C)C(=S)Oc1ccc(CCCCNC(=N)NC(=O)c2nc(Cl)c(N)nc2N)cc1` [compound 17846] gave a 50% effective concentration (EC50) of 11 ± 6 nM.

For `CC(C)[C@H](NS(=O)(=O)c1ccc(CCCCNC(=N)NC(=O)c2nc(Cl)c(N)nc2N)cc1)C(N)=O` [compound 19008], the concentration giving a half-maximal response (EC50) turned out to be 9 ± 1 nM.

With `N=C(NCCCCc1ccc(OCCCc2nnn[nH]2)cc1)NC(=O)c1nc(Cl)c(N)nc1N` [compound 17926], the 50% effective concentration (EC50) stood at 25 ± 9 nM.

`CN(C)C(=O)COc1ccc(CCCCNC(=N)NC(=O)c2nc(Cl)c(N)nc2N)cc1` [compound 16313] had an EC50 of 15 ± 4 nM.

`N=C(NCCCCc1ccc(OCC(=O)NCC(N)=O)cc1)NC(=O)c1nc(Cl)c(N)nc1N` [compound 16314] returned a 50% effective concentration (EC50) of 13 ± 2 nM.

System in another series: not given
Experiment: not given
Conditions: not given
The melting point is the temperature, or range, at which the solid turns liquid. Take `N=C(NCCCCc1ccc(OCC(=O)N(CCO)CCO)cc1)NC(=O)c1nc(Cl)c(N)nc1N`: the melting point fell in the range of 114 to 121.16 °C.
